Mutagenic call data for eleven compounds are collected here from PubChem BioAssay AID1259407 (Chemical Carcinogenesis Research Information System (CCRIS), 2018).

Active and inactive are the calls of the source. How the calls were made is not given here.

For this data set, the system named is CCRIS mutagenicity, Ames/micronucleus/aberration tests. The data set can be described thus: CCRIS mutagenicity studies.
Where [1] appears, read: Test System: AMES SALMONELLA TYPHIMURIUM, Strain/Indicator: TA98, Metabolic Activation: NONE, Method: STANDARD PLATE.
Setting [2] is: Test System: AMES SALMONELLA TYPHIMURIUM, Strain/Indicator: TA98, Metabolic Activation: RAT, LIVER, S-9, AROCLOR 1254, Method: STANDARD PLATE.
Setting [3] is: Test System: AMES SALMONELLA TYPHIMURIUM, Strain/Indicator: TA100, Metabolic Activation: NONE, Method: STANDARD PLATE.
Setting [4] is: Test System: AMES SALMONELLA TYPHIMURIUM, Strain/Indicator: TA100, Metabolic Activation: RAT, LIVER, S-9, AROCLOR 1254, Method: STANDARD PLATE.
Setting [5] is: Test System: AMES SALMONELLA TYPHIMURIUM, Strain/Indicator: TA1537, Metabolic Activation: NONE, Method: STANDARD PLATE.
The mark [6] stands for this setting: Test System: AMES SALMONELLA TYPHIMURIUM, Strain/Indicator: TA1537, Metabolic Activation: RAT, LIVER, S-9, AROCLOR 1254, Method: STANDARD PLATE.
The mark [7] stands for this setting: Test System: AMES SALMONELLA TYPHIMURIUM, Strain/Indicator: TA100, Metabolic Activation: NONE, Method: PREINCUBATION

For `COc1ccc(CNCC(O)COc2ccc3[nH]c(=O)ccc3c2)cc1OC` (stereo not given), the mutagenic call under setting [1] was “inactive; negative”; the mutagenic call under setting [2] is “inactive; negative”; the mutagenic call under setting [3] was “inactive; negative”; the mutagenic call under setting [4] is “inactive; negative”; the mutagenic call (Test System: AMES SALMONELLA TYPHIMURIUM, Strain/Indicator: TA1535, Metabolic Activation: NONE, Method: STANDARD PLATE) is “inactive; negative”; the mutagenic call (Test System: AMES SALMONELLA TYPHIMURIUM, Strain/Indicator: TA1535, Metabolic Activation: RAT, LIVER, S-9, AROCLOR 1254, Method: STANDARD PLATE) is “inactive; negative”. In addition, the mutagenic call runs as follows: under setting [5], “inactive; negative”; under setting [6], “inactive; negative”; (Test System: AMES SALMONELLA TYPHIMURIUM, Strain/Indicator: TA1538, Metabolic Activation: NONE, Method: STANDARD PLATE) “inactive; negative”; (Test System: AMES SALMONELLA TYPHIMURIUM, Strain/Indicator: TA1538, Metabolic Activation: RAT, LIVER, S-9, AROCLOR 1254, Method: STANDARD PLATE) “inactive; negative”; (Test System: E. COLI, Strain/Indicator: WP2 UVRA, Metabolic Activation: NONE, Method: STANDARD PLATE) “inactive; negative”; (Test System: E. COLI, Strain/Indicator: WP2 UVRA, Metabolic Activation: RAT, LIVER, S-9, AROCLOR 1254, Method: STANDARD PLATE) “inactive; negative”. Moreover, the mutagenic call (Test System: MOUSE LYMPHOMA, Strain/Indicator: L5178Y (TK+/TK-), Metabolic Activation: NONE, Method: SUSPENSION/PLATE) was “active; positive”.

Consider `O=C(O)C1Cc2c([nH]c3ccccc23)C(CO)N1` (stereo not given), for which the mutagenic call was “inactive; negative” (Test System: AMES SALMONELLA TYPHIMURIUM, Strain/Indicator: TA97, Metabolic Activation: NONE, Method: STANDARD PLATE); “inactive; negative” (Test System: AMES SALMONELLA TYPHIMURIUM, Strain/Indicator: TA97, Metabolic Activation: RAT, LIVER, S-9, AROCLOR 1254, Method: STANDARD PLATE); “inactive; negative” under setting [1]; “inactive; negative” under setting [2]; “inactive; negative” under setting [3]; “inactive; negative” under setting [4].

`OCc1cc2cccc3ccc4cc5ccccc5c1c4c32`: the mutagenic call under setting [1] was “inactive; negative” and the mutagenic call under setting [3] was “inactive; negative”.

For the compound `N#Cc1ccc(/C=C/c2ccc([N+](=O)[O-])cc2)cc1`, the mutagenic call is, setting by setting: (Test System: AMES SALMONELLA TYPHIMURIUM, Strain/Indicator: TA98 (NR), Metabolic Activation: NONE, Method: STANDARD PLATE) “active; positive”; (Test System: AMES SALMONELLA TYPHIMURIUM, Strain/Indicator: TA98 (NR), Metabolic Activation: S-9, Method: STANDARD PLATE) “active; positive”; (Test System: AMES SALMONELLA TYPHIMURIUM, Strain/Indicator: TA98, Metabolic Activation: RAT, LIVER, S-9, AROCLOR, Method: STANDARD PLATE) “active; positive”; (Test System: AMES SALMONELLA TYPHIMURIUM, Strain/Indicator: TA98, Metabolic Activation: S-9, Method: STANDARD PLATE) “active; positive”; (Test System: AMES SALMONELLA TYPHIMURIUM, Strain/Indicator: TA100 (NR), Metabolic Activation: NONE, Method: STANDARD PLATE) “inactive; negative”; (Test System: AMES SALMONELLA TYPHIMURIUM, Strain/Indicator: TA100(NR), Metabolic Activation: S-9, Method: STANDARD PLATE) “inactive; negative”. The mutagenic call was “active; positive” (Test System: AMES SALMONELLA TYPHIMURIUM, Strain/Indicator: TA100, Metabolic Activation: RAT, LIVER, S-9, AROCLOR, Method: STANDARD PLATE) and “active; positive” (Test System: AMES SALMONELLA TYPHIMURIUM, Strain/Indicator: TA100, Metabolic Activation: S-9, Method: STANDARD PLATE).

Take `O=C(O)CCCl`: the mutagenic call is, setting by setting: (Test System: Ames Salmonella typhimurium, Strain/Indicator: TA98, Metabolic Activation: None, Method: Preincubation) “inactive; negative”; (Test System: Ames Salmonella typhimurium, Strain/Indicator: TA98, Metabolic Activation: Rat, Liver, S9, Sodium phenobarbital and 5,6-benzoflavone (10%), Method: Preincubation) “inactive; negative”; (Test System: Ames Salmonella typhimurium, Strain/Indicator: TA100, Metabolic Activation: None, Method: Preincubation) “active; positive”; (Test System: Ames Salmonella typhimurium, Strain/Indicator: TA100, Metabolic Activation: Rat, Liver, S9, Sodium phenobarbital and 5,6-benzoflavone (10%), Method: Preincubation) “active; positive”; (Test System: Ames Salmonella typhimurium, Strain/Indicator: TA1535, Metabolic Activation: None, Method: Preincubation) “active; positive”; (Test System: Ames Salmonella typhimurium, Strain/Indicator: TA1535, Metabolic Activation: Rat, Liver, S9, Sodium phenobarbital and 5,6-benzoflavone (10%), Method: Preincubation) “active; positive”. The mutagenic call is, setting by setting: (Test System: Ames Salmonella typhimurium, Strain/Indicator: TA1537, Metabolic Activation: Rat, Liver, S9, Sodium phenobarbital and 5,6-benzoflavone (10%), Method: Preincubation) “inactive; negative”; (Test System: E. coli, Strain/Indicator: WP2uvrA/pKM101, Metabolic Activation: None, Method: Preincubation) “active; positive”; (Test System: E. coli, Strain/Indicator: WP2uvrA/pKM101, Metabolic Activation: Rat, Liver, S9, Sodium phenobarbital and 5,6-benzoflavone (10%), Method: Preincubation) “active; positive”.

Turning to `CCC(C)c1ccccc1OC(=O)N(C)N=O` (stereo not given), the mutagenic call (Test System: E. COLI WP2, Strain/Indicator: WP2, Metabolic Activation: NONE, Method: STANDARD PLATE) was “active; positive”.

For `C1COCCOCCOCCOCCO1`, the mutagenic call is “inactive; negative” under setting [1]; “inactive; negative” under setting [2]; “inactive; negative” under setting [3]; “inactive; negative” under setting [4]; “inactive; negative” (Test System: AMES SALMONELLA TYPHIMURIUM, Strain/Indicator: TA1530, Metabolic Activation: NONE, Method: STANDARD PLATE); “inactive; negative” (Test System: AMES SALMONELLA TYPHIMURIUM, Strain/Indicator: TA1530, Metabolic Activation: RAT, LIVER, S-9, AROCLOR 1254, Method: STANDARD PLATE). The mutagenic call by setting is: under setting [5], “inactive; negative”; under setting [6], “inactive; negative”.

As to `NNc1ccc([N+](=O)[O-])cc1`, the mutagenic call reads like this: (Test System: AMES SALMONELLA TYPHIMURIUM, Strain/Indicator: TA98, Metabolic Activation: NONE, Method: PREINCUBATION) “active; positive”; (Test System: AMES SALMONELLA TYPHIMURIUM, Strain/Indicator: TA98, Metabolic Activation: RAT, LIVER, S-9, KANECHLOR 500, Method: PREINCUBATION) “active; positive”; under setting [7], “active; positive”; (Test System: AMES SALMONELLA TYPHIMURIUM, Strain/Indicator: TA100, Metabolic Activation: RAT, LIVER, S-9, KANECHLOR 500, Method: PREINCUBATION) “active; positive”.

Consider `Cl[C@@H]1O[C@@H]1CBr`, for which, under setting [7], the mutagenic call is “active; positive”.

Regarding `O=C1c2ccccc2-c2cc3ccccc3cc21`, the mutagenic call by setting is: under setting [1], “active; positive”; under setting [2], “active; positive”.

Consider `N[C@@H](CCC(=O)N(CC(=O)O)C(=O)[C@@H](N)CSCCCl)C(=O)O`, for which, under setting [3], the mutagenic call was “active; positive”.
